Measurements taken from patent publication US20090018111A1, “Novel Antimicrobial Medicament” (priority 2004, published 2009).
Like-named read-outs stand apart in the source and are kept apart here.

Key:
Test in all cases: Sensitivity test (agar dilution), clinical isolate
P. aeruginosa 15039 = format: cell-based, Pseudomonas aeruginosa
Experimental: (§1) In addition, the antibacterial activities were tested against strains which are comparatively less sensitive to β-lactam compounds, namely clinically isolated 13 strains of Acinetobacter calcoaceticus and Acinetobacter lwoffi, clinically isolated 11 strains of Serratia marcescens, clinically isolated 12 strains of Burkholderia cepacia, and clinically isolated 15 strains of Pseudomonas aeruginosa.
(§2) According to the standard method of Japan Chemotherapeutic Society (Chemotherapy, vol. […], p 76-79 (1981)) the test was carried out using the agar dilution method. After dissolving test samples in distilled water, agar medium containing the test samples was prepared in such a manner that the final concentration became twice serial dilution by pouring serially diluted combination drug solution or a single drug solution into agar medium. As agar medium was used Mueller Hinton Agar medium (MHA). Then, each strain was cultivated over night at 37° C. in an incubator and suspended in buffered saline solution with gelatin (BSG) in the concentration of about 10^6 CFU/ml. The suspension (about 5 μl) containing test strains was inoculated to the medium containing the test samples by Micro Planter.
(§3) Each drug was weighed, and dissolved in distilled water to give a test sample. When the drugs are used in combination, two kinds of solution containing each drug were mixed so as to be various ratio of concentration to give a mixed solution. When the sample is subjected to sensitivity test, this mixed solution was diluted by twice serial dilution method.
(§4) Furthermore, when the drug is solely used, each test sample was used as it is, and diluted by twice serial dilution method from the maximum concentration to the minimum concentration.

P. aeruginosa 13224 = format: cell-based, Pseudomonas aeruginosa
Experimental: as §1, §2, §3, §4

P. aeruginosa 12790 = format: cell-based, Pseudomonas aeruginosa
Experimental: as §1, §2, §3, §4

P. aeruginosa 13250 = format: cell-based, Pseudomonas aeruginosa
Experimental: as §1, §2, §3, §4

P. aeruginosa 13269 = format: cell-based, Pseudomonas aeruginosa
Experimental: as §1, §2, §3, §4

P. aeruginosa 15036 = format: cell-based, Pseudomonas aeruginosa
Experimental: as §1, §2, §3, §4

P. aeruginosa 13272 = format: cell-based, Pseudomonas aeruginosa
Experimental: as §1, §2, §3, §4

P. aeruginosa 13280 = format: cell-based, Pseudomonas aeruginosa
Experimental: as §1, §2, §3, §4

P. aeruginosa 13245 = format: cell-based, Pseudomonas aeruginosa
Experimental: as §1, §2, §3, §4

P. aeruginosa 13285 = format: cell-based, Pseudomonas aeruginosa
Experimental: as §1, §2, §3, §4

P. aeruginosa 15040 = format: cell-based, Pseudomonas aeruginosa
Experimental: as §1, §2, §3, §4

P. aeruginosa 15019 = format: cell-based, Pseudomonas aeruginosa
Experimental: as §1, §2, §3, §4

P. aeruginosa 12789 = format: cell-based, Pseudomonas aeruginosa
Experimental: as §1, §2, §3, §4

P. aeruginosa 15032 = format: cell-based, Pseudomonas aeruginosa
Experimental: as §1, §2, §3, §4

B. cepacia 3138 = format: cell-based, Burkholderia cepacia
Experimental: as §1, §2, §3, §4

C[C@@H](O)[C@H]1C(=O)N2C(C(=O)O)=C(S[C@@H]3CN[C@H](C(=O)N(C)C)C3)[C@H](C)[C@H]12 [MEPM, meropenem] gave an MIC (P. aeruginosa 15039; Pseudomonas aeruginosa, 15039, Concomitant (ME:SM = 1:1)) of 8 µg/mL, an MIC (P. aeruginosa 15039; Pseudomonas aeruginosa, 15039, Concomitant (ME:SM = 1:2)) of 8 µg/mL and an MIC (P. aeruginosa 15039; Pseudomonas aeruginosa, 15039, Concomitant (ME:SM = 1:4)) of 4 µg/mL. It also gave an MIC (P. aeruginosa 15039; Pseudomonas aeruginosa, 15039, Concomitant (ME:SM = 2:1)) of 8 µg/mL, an MIC (P. aeruginosa 15039; Pseudomonas aeruginosa, 15039, alone) of 8 µg/mL and an MIC (P. aeruginosa 13224; Pseudomonas aeruginosa, 13224, Concomitant (ME:SM = 1:1)) of 4 µg/mL. The MIC (P. aeruginosa 13224; Pseudomonas aeruginosa, 13224, Concomitant (ME:SM = 1:2)) was 2 µg/mL, the MIC (P. aeruginosa 13224; Pseudomonas aeruginosa, 13224, Concomitant (ME:SM = 1:4)) was 2 µg/mL and the MIC (P. aeruginosa 13224; Pseudomonas aeruginosa, 13224, Concomitant (ME:SM = 2:1)) was 4 µg/mL. For the same compound, the MIC (P. aeruginosa 13224; Pseudomonas aeruginosa, 13224, alone) was 4 µg/mL, the MIC (P. aeruginosa 12790; Pseudomonas aeruginosa, 12790) was 0.125 µg/mL and the MIC (P. aeruginosa 12790; Pseudomonas aeruginosa, 12790, Concomitant (ME:SM = 1:1), read-out: MIC) was 0.063 µg/mL. It also gave an MIC (P. aeruginosa 12790; Pseudomonas aeruginosa, 12790, Concomitant (ME:SM = 1:4), read-out: MIC) of 0.063 µg/mL, an MIC (P. aeruginosa 12790; Pseudomonas aeruginosa, 12790, Concomitant (ME:SM = 2:1), read-out: MIC) of 0.031 µg/mL and an MIC (P. aeruginosa 12790; Pseudomonas aeruginosa, 12790, alone, read-out: MIC) of 0.063 µg/mL. For the same compound, the MIC (P. aeruginosa 13250; Pseudomonas aeruginosa, 13250, Concomitant (ME:SM = 1:1)) was 0.5 µg/mL, the MIC (P. aeruginosa 13250; Pseudomonas aeruginosa, 13250, Concomitant (ME:SM = 1:2)) was 0.25 µg/mL and the MIC (P. aeruginosa 13250; Pseudomonas aeruginosa, 13250, Concomitant (ME:SM = 1:4)) was 0.5 µg/mL. The MIC (P. aeruginosa 13250; Pseudomonas aeruginosa, 13250, Concomitant (ME:SM = 2:1)) was 0.5 µg/mL, the MIC (P. aeruginosa 13250; Pseudomonas aeruginosa, 13250, alone) was 0.5 µg/mL and the MIC (P. aeruginosa 13269; Pseudomonas aeruginosa, 13269, Concomitant (ME:SM = 1:1)) was 4 µg/mL. For the same compound, the MIC (P. aeruginosa 13269; Pseudomonas aeruginosa, 13269, Concomitant (ME:SM = 1:2)) was 2 µg/mL, the MIC (P. aeruginosa 13269; Pseudomonas aeruginosa, 13269, Concomitant (ME:SM = 1:4)) was 2 µg/mL and the MIC (P. aeruginosa 13269; Pseudomonas aeruginosa, 13269, Concomitant (ME:SM = 2:1)) was 4 µg/mL. The MIC (P. aeruginosa 13269; Pseudomonas aeruginosa, 13269, alone) was 4 µg/mL, the MIC (P. aeruginosa 15036; Pseudomonas aeruginosa, 15036, Concomitant (ME:SM = 1:1)) was 2 µg/mL and the MIC (P. aeruginosa 15036; Pseudomonas aeruginosa, 15036, Concomitant (ME:SM = 1:2)) was 1 µg/mL. For the same compound, the MIC (P. aeruginosa 15036; Pseudomonas aeruginosa, 15036, Concomitant (ME:SM = 1:4)) was 2 µg/mL, the MIC (P. aeruginosa 15036; Pseudomonas aeruginosa, 15036, Concomitant (ME:SM = 2:1)) was 2 µg/mL and the MIC (P. aeruginosa 15036; Pseudomonas aeruginosa, 15036, alone) was 2 µg/mL. It also gave an MIC (P. aeruginosa 13272; Pseudomonas aeruginosa, 13272, Concomitant (ME:SM = 1:1)) of 4 µg/mL, an MIC (P. aeruginosa 13272; Pseudomonas aeruginosa, 13272, Concomitant (ME:SM = 1:2)) of 2 µg/mL and an MIC (P. aeruginosa 13272; Pseudomonas aeruginosa, 13272, Concomitant (ME:SM = 1:4)) of 2 µg/mL. The MIC (P. aeruginosa 13272; Pseudomonas aeruginosa, 13272, Concomitant (ME:SM = 2:1)) was 4 µg/mL, the MIC (P. aeruginosa 13272; Pseudomonas aeruginosa, 13272, alone) was 4 µg/mL and the MIC (P. aeruginosa 13280; Pseudomonas aeruginosa, 13280, Concomitant (ME:SM = 1:1)) was 4 µg/mL. For the same compound, the MIC (P. aeruginosa 13280; Pseudomonas aeruginosa, 13280, Concomitant (ME:SM = 1:2)) was 4 µg/mL, the MIC (P. aeruginosa 13280; Pseudomonas aeruginosa, 13280, Concomitant (ME:SM = 1:4)) was 4 µg/mL and the MIC (P. aeruginosa 13280; Pseudomonas aeruginosa, 13280, Concomitant (ME:SM = 2:1)) was 8 µg/mL. For the same compound, the MIC (P. aeruginosa 13280; Pseudomonas aeruginosa, 13280, alone) was 8 µg/mL, the MIC (P. aeruginosa 13245; Pseudomonas aeruginosa, 13245, Concomitant (ME:SM = 1:1)) was 2 µg/mL and the MIC (P. aeruginosa 13245; Pseudomonas aeruginosa, 13245, Concomitant (ME:SM = 1:2)) was 1 µg/mL. For the same compound, the MIC (P. aeruginosa 13245; Pseudomonas aeruginosa, 13245, Concomitant (ME:SM = 1:4)) was 2 µg/mL, the MIC (P. aeruginosa 13245; Pseudomonas aeruginosa, 13245, Concomitant (ME:SM = 2:1)) was 2 µg/mL and the MIC (P. aeruginosa 13245; Pseudomonas aeruginosa, 13245, alone) was 2 µg/mL. For the same compound, the MIC (P. aeruginosa 13285; Pseudomonas aeruginosa, 13285, Concomitant (ME:SM = 1:1)) was 4 µg/mL, the MIC (P. aeruginosa 13285; Pseudomonas aeruginosa, 13285, Concomitant (ME:SM = 1:2)) was 4 µg/mL and the MIC (P. aeruginosa 13285; Pseudomonas aeruginosa, 13285, Concomitant (ME:SM = 1:4)) was 4 µg/mL. For the same compound, the MIC (P. aeruginosa 13285; Pseudomonas aeruginosa, 13285, Concomitant (ME:SM = 2:1)) was 4 µg/mL, the MIC (P. aeruginosa 13285; Pseudomonas aeruginosa, 13285, alone) was 4 µg/mL and the MIC (P. aeruginosa 15040; Pseudomonas aeruginosa, 15040, Concomitant (ME:SM = 1:1)) was 4 µg/mL. The MIC (P. aeruginosa 15040; Pseudomonas aeruginosa, 15040, Concomitant (ME:SM = 1:2)) was 2 µg/mL, the MIC (P. aeruginosa 15040; Pseudomonas aeruginosa, 15040, Concomitant (ME:SM = 1:4)) was 2 µg/mL and the MIC (P. aeruginosa 15040; Pseudomonas aeruginosa, 15040, Concomitant (ME:SM = 2:1)) was 4 µg/mL. It also gave an MIC (P. aeruginosa 15040; Pseudomonas aeruginosa, 15040, alone) of 4 µg/mL, an MIC (P. aeruginosa 15019; Pseudomonas aeruginosa, 15019, Concomitant (ME:SM = 1:1)) of 4 µg/mL and an MIC (P. aeruginosa 15019; Pseudomonas aeruginosa, 15019, Concomitant (ME:SM = 1:2)) of 4 µg/mL. The MIC (P. aeruginosa 15019; Pseudomonas aeruginosa, 15019, Concomitant (ME:SM = 1:4)) was 2 µg/mL, the MIC (P. aeruginosa 15019; Pseudomonas aeruginosa, 15019, Concomitant (ME:SM = 2:1)) was 4 µg/mL and the MIC (P. aeruginosa 15019; Pseudomonas aeruginosa, 15019, alone) was 4 µg/mL. It also gave an MIC (P. aeruginosa 12789; Pseudomonas aeruginosa, 12789, Concomitant (ME:SM = 1:1)) of 0.5 µg/mL, an MIC (P. aeruginosa 12789; Pseudomonas aeruginosa, 12789, Concomitant (ME:SM = 1:2)) of 0.5 µg/mL and an MIC (P. aeruginosa 12789; Pseudomonas aeruginosa, 12789, Concomitant (ME:SM = 1:4)) of 0.5 µg/mL. The MIC (P. aeruginosa 12789; Pseudomonas aeruginosa, 12789, Concomitant (ME:SM = 2:1)) was 0.5 µg/mL, the MIC (P. aeruginosa 12789; Pseudomonas aeruginosa, 12789, alone) was 0.5 µg/mL and the MIC (P. aeruginosa 15032; Pseudomonas aeruginosa, 15032, Concomitant (ME:SM = 1:1)) was 2 µg/mL. The MIC (P. aeruginosa 15032; Pseudomonas aeruginosa, 15032, Concomitant (ME:SM = 1:2)) was 1 µg/mL, the MIC (P. aeruginosa 15032; Pseudomonas aeruginosa, 15032, Concomitant (ME:SM = 1:4)) was 2 µg/mL and the MIC (P. aeruginosa 15032; Pseudomonas aeruginosa, 15032, Concomitant (ME:SM = 2:1)) was 2 µg/mL. It also gave an MIC (P. aeruginosa 15032; Pseudomonas aeruginosa, 15032, alone) of 2 µg/mL, an MIC (B. cepacia 3138; Burkholderia cepacia, 3138, Concomitant (ME:SM = 1:1)) of 1 µg/mL and an MIC (B. cepacia 3138; Burkholderia cepacia, 3138, Concomitant (ME:SM = 1:2)) of 1 µg/mL. The MIC (B. cepacia 3138; Burkholderia cepacia, 3138, Concomitant (ME:SM = 1:4)) was 2 µg/mL, the MIC (B. cepacia 3138; Burkholderia cepacia, 3138, Concomitant (ME:SM = 2:1)) was 2 µg/mL and the MIC (B. cepacia 3138; Burkholderia cepacia, 3138, alone) was 2 µg/mL.
